# What was measured:
# [1] = method code SF-AS, from DOI: 10.1016/0378-5173(86)90115-8
# [2] = method code SF-HPLC, from DOI: 10.1006/pest.1998.2384
# [3] = method code SF-AS, from DOI: 10.1213/00000539-199008000-00008, PMID: 2375517
# [4] = method code SF-AS, from DOI: 10.1016/0223-5234(96)88239-0; details: pH 2.0
# [5] = method code SF-ILT, from DOI: 10.1002/ardp.19763091008, PMID: 1008678
# [6] = not given; remark: listed apart in the source
# [7] = method code SF-HPLC, from Yu, G.; Xu, X. (1993). Determination of the 1-octanol/water partition coefficient of nitro-PAHs. Huanjing Huaxue, 12(4)299-303.
# [8] = not given; remark: listed apart in the source
# [9] = method code SF-HPLC, from DOI: 10.1016/0378-5173(90)90184-6; details: pH 4.0
# [10] = method code SF-AS, from Lippold, B.; Lichey, J. (1984). Transport of drugs through lipophilic polymer membranes. II. Influence of the partition and diffusion coefficients. Acta pharmaceutica technologica, 30(2)140-154.
# [11] = method code SF, from DOI: 10.1023/a:1012119527214, PMID: 9453056; details: pH 12.5
# [12] = method code SF-RC, from DOI: 10.1016/s0969-8051(00)00080-9, PMID: 10832080; details: pH 13.0
# [13] = method code SF-HPLC, from DOI: 10.1016/0006-2952(94)90540-1, PMID: 8185676
# [14] = not given; remark: listed apart in the source
# [15] = not given; remark: listed apart in the source
# [16] = method code SF-RC, from DOI: 10.1002/syn.20147; details: pH 7.4
# [17] = not given; remark: listed apart in the source
# [18] = method code SF-HPLC, from DOI: 10.1023/a:1013643013244, PMID: 11837695; details: pH 6.4
# [19] = method code SF-AS, from DOI: 10.1002/jps.2600611027, PMID: 5072421
# [20] = method code SF, from DOI: 10.1584/jpestics.12.445
# [21] = method code SF-AS, from DOI: 10.1007/bf02273190
# [22] = method code SF-RC, from DOI: 10.1016/j.apradiso.2010.08.010, PMID: 20843697; details: pH 7.4
# [23] = not given; remark: listed apart in the source
# [24] = method code SF-AS, from DOI: 10.1016/s0003-2670(01)80868-0
# [25] = not given; remark: listed apart in the source
# [26] = method code SF, from DOI: 10.1016/j.bcp.2004.09.021, PMID: 15627482; details: pH 7.0
# [27] = not given; remark: listed apart in the source
# [28] = method code SF-AS, from DOI: 10.1211/0022357011776199, PMID: 11428660; details: pH 7.4
# [29] = method code SF-AS, from DOI: 10.1248/cpb.32.4084, PMID: 6099228; details: pH 7.4
# [30] = method code SF-AS, from DOI: 10.1016/0300-483x(85)90004-6, PMID: 4024126
# [31] = method code SF-AS, from DOI: 10.1016/s0969-8051(99)00063-3, PMID: 10628565; details: pH 7.0
# [32] = method code SF-HPLC, from DOI: 10.1248/cpb.37.2861, PMID: 2611948; details: pH 4.0
# [33] = method code SF-HPLC, from DOI: 10.1002/ps.2780280108
# [34] = method code SF-AS, from DOI: 10.1002/pauz.19770060602
compound,measurement,setting,value
CCCCCC(=O)N(C)c1ccc(S(=O)(=O)N(C)C)cc1,logP,[1],2.16
ClC1=C(Cl)C2(Cl)C3C4C=CC(C4)C3C1(Cl)C2(Cl)Cl (centres undefined),logP,,5.67
C=CCN1CCN(Cc2ccc(Cl)nc2)C1=N[N+](=O)[O-],logP,[2],0.51
CCCNC(C)C(=O)Nc1ccccc1C (centres undefined),logP,[3],2.11
Cc1ccc(C(=O)c2ncc(C(=O)O)n2C)cc1,logD,[4],2.25
CCN(CC)C(=O)C1C2CC3C(OC(=O)C31)C2O (centres undefined),logP,[5],0.15
Brc1cccc(-c2cc(Br)ccc2Br)c1,logP,[6],6.2
O=[N+]([O-])c1ccc2c(c1)Cc1ccccc1-2,logP,[7],3.99
CCSc1nc(NC(C)C)nc(NC(C)C)n1,logP,[8],3.81
CCCCCCNC(=O)n1cc(F)c(=O)[nH]c1=O,logD,[9],2.63
Brc1ccc(-c2ccccc2)c(Br)c1,logP,[6],5.53
CCCCNC(=O)NS(=O)(=O)c1ccc(N)cc1,logP,[10],1.18
CCN(CC)CC(=O)NCC(=O)Nc1c(C)cccc1C,logD,[11],2.2
CN1C2CCC1C(c1ccccn1)C2 (centres undefined),logD,[12],1.34
Cc1cccc(C)c1NC(=O)CN(C)C,logD,[11],1.23
CC[C@]1(Cl)C(=O)NC(=O)N([C@H]2C[C@H](O)[C@@H](CO)O2)[C@@H]1OC,logP,[13],0.4
CCCCCCCCNC(=O)n1cc(F)c(=O)[nH]c1=O,logD,[9],3.9
Clc1cc2c(oc3c(Cl)cc(Cl)c(Cl)c32)c(Cl)c1Cl,logP,[14],7.51
CN1CCN(c2ncc(-c3ccncc3)cc2C#N)CC1,logP,[15],2.96
N#Cc1cc(F)cc(C#Cc2ccccn2)c1,logD,[16],2.8
CN1C[C@@H](N)C[C@@H]2c3cccc4[nH]cc(c34)C[C@H]21,logP,[17],0.4
C#CCN1CCN(Cc2ccc(Cl)nc2)C1=N[N+](=O)[O-],logP,[2],0.29
CCCCCN1C(=O)CCC(N2C(=O)c3ccccc3C2=O)C1=O (centres undefined),logD,[18],3.01
CC[C@@]1(Br)C(=O)NC(=O)N([C@H]2C[C@H](O)[C@@H](CO)O2)[C@H]1OC,logP,[13],0.4
Clc1cc(Cl)c2oc3c(Cl)c(Cl)c(Cl)c(Cl)c3c2c1Cl,logP,[14],7.93
CCCCCCCCc1ccncc1,logP,[19],5.42
C=C(c1ccccc1OCCCCCO)n1ccnc1,logP,[20],2.89
CC(=O)N(C)c1ccc(S(=O)(=O)N(C)C)cc1,logP,[21],0.23
O=C(NCCN1C(=O)C=CC1=O)c1cccc(I)c1,logD,[22],1.03
CCN/C(=N/C#N)NCCSCc1ncccc1Br,logP,[23],1.98
O=C(NCCN1C(=O)C=CC1=O)c1cncc(I)c1,logD,[22],0.63
CCCCC(=O)CC(=O)CCCC,logP,[24],3.56
CN(C)c1nc(=O)n(C2CCCCC2)c(=O)n1C,logP,[8],1.85
O=C1c2ccccc2C(=O)c2c(O)cccc21,logP,[25],3.52
CCCCC1(C(=O)OCCC)CCC=[N+]1[O-] (centres undefined),logD,[26],1.16
Cc1nc(NCCN)c(C#N)cc1-c1ccncc1,logP,[15],1.91
CCN(CC)CCOC(=O)c1ccc(N)cc1Cl,logP,[3],2.86
CN1C(=O)CCC(N2C(=O)c3ccccc3C2=O)C1=O (centres undefined),logD,[18],1.15
NS(=O)(=O)c1ccc(-n2cc(-c3ccccc3)nn2)cc1,logP,[27],2.3
Cc1ncc([N+](=O)[O-])n1CCOC(=O)CN1CCOCC1,logD,[28],0.27
CCCCCCCCCc1ccncc1,logP,[19],6.11
O=C(CN1CCCCC1)Nc1ccc(Cl)cc1,logD,[29],3.26
Cc1nc(C#Cc2cc(F)cc(C#N)c2)cs1,logD,[16],3.2
COP(=O)(OC)O/C(C)=C/C(=O)OC(C)c1ccccc1 (centres undefined),logP,,3
CN1C2CCC1C(c1cccnc1)C2 (centres undefined),logD,[12],1.65
CCC(=O)N(C)c1ccc(S(=O)(=O)N(C)C)cc1,logP,[21],0.71
CC(C1=C(CCN(C)C)Cc2ccccc21)c1ccccn1 (centres undefined),logP,[10],2.7
CC(=O)c1ccc(N2C(=O)CCC2=O)cc1,logP,[30],1.37
CN(C)Cc1ccc(CSCCNc2[nH]ccc2[N+](=O)[O-])o1,logP,[23],1.64
O=c1[nH]c(Nc2ccccc2)nc2c1ncn2CC(O)CO (centres undefined),logD,[31],0.4
CN(C)CCSCc1ccccc1,logP,[17],1.81
NS(=O)(=O)c1ccc(-c2cn([C@@H]3O[C@H](CO)[C@@H](O)[C@H](O)[C@H]3O)nn2)cc1,logP,[27],-0.1
Cc1ccc(Cn2cc(F)c(=O)[nH]c2=O)cc1,logD,[32],1.5
COC(=O)c1c(C)[nH]c(-c2ncccc2Cl)c1C(=O)OC,logP,[33],1.51
COc1ccc(C(=O)c2ncc(C(=O)O)n2C)cc1,logD,[4],2.01
O=[N+]([O-])c1ccc(-c2ccc([N+](=O)[O-])cc2)cc1,logP,[7],3.2
c1ccc2c(c1)-c1cccc3cccc-2c13,logP,[25],5.15
O=C1CN=C(c2ccccn2)c2cc(Br)ccc2N1,logP,[34],2.05
CCN(CC)C(=O)[C@@H]1[C@@H](C(=O)N(CC)CC)[C@H]2C=C[C@@H]1C2,logP,[5],1.16
COc1ccc(Cn2cc(F)c(=O)[nH]c2=O)cc1,logD,[32],1.04
C=CCOc1ccccc1C(=C)n1ccnc1,logP,[20],2.74
CC(C)(C)c1ccc(N2C(=O)CCC2=O)cc1,logP,[30],0.67
CCCCC1(C(=O)OC(C)CC)CCC=[N+]1[O-] (centres undefined),logD,[26],1.59
COC(=O)c1c(C)[nH]c(-c2cc(Cl)ccn2)c1C(=O)OC,logP,[33],2.63
CN(C(=O)CCC(N)=O)c1ccc(S(=O)(=O)N(C)C)cc1,logP,[1],-0.56
CCc1ccc(NC(=O)CN2CCCCC2)cc1,logD,[29],3.52
CCCCCC(=O)CC(=O)CCCCC,logP,[24],4.88
CCN(CC)CC(=O)OCCn1c([N+](=O)[O-])cnc1C,logD,[28],0.03
O=C1CN(O)C(c2ccccc2)=c2cc(Cl)ccc2=N1,logD,[34]; pH 4.0,1.49
